This passage reports solubility results from patent US12721856B2, “Psilocybin compositions, methods of making and methods of using the same” (priority 2021, dated 2026).

The series can be described thus: Solubility in water. The class given is physicochemical. The text has this:
The psilocybin in the form Polymorph A or A′ has the general properties illustrated in Table 5 below: […]

Converted amounts (≈) assume the structure as drawn.

As to `CN(C)CCc1c[nH]c2cccc(OP(=O)(O)O)c12` [Psilocybin], the solubility is approximately 15 mg/mL (≈ 52.8 mM).

What is called solubility is how much of the substance goes into solution per volume. A high value points to a readily soluble substance.
